From patent publication US10456434B2, “Extracts obtained from cell line cultures from plants belonging to the Oleaceae family (e.g. Syringa vulgaris), their preparation and use” (CRODA ITALIANA S. P. A., priority 2005, dated 2019)

What was measured:
tyrosinase [1] = assay: Tyrosinase inhibition, oxidation of L-tyrosine to L-DOPA; type: biochemical; settings: 250 μg/ml
Excerpt: (§1) The enzyme tyrosinase catalyses the reactions leading to melanin biosynthesis from tyrosine. […] Substances inhibiting tyrosinase activity produce clearing/bleaching effect on the skin, since they block melanin synthesis. The method used to determine the inhibition of tyrosinase activity in the oxidation reaction of L-tyrosine to L-DOPA is that described in Kim et al. […] Biol. Pharm. Bull. 28(2), 323-327, 2005). The method applied for determination of the inhibition of tyrosinase activity in the conversion of L-DOPA to DOPAquinone is that described in Masamoto et al. (Mushroom tyrosinase inhibitory activity of esculetin isolated from seeds of Euphorbia lathyris L. Biosci. Biotechnol. Biochem., 67(3), 631-634, 2003).

tyrosinase [2] = assay: Tyrosinase inhibition, conversion of L-DOPA to DOPAquinone; type: biochemical, Mushroom; settings: 100 μg/ml
Excerpt: as §1

[3] = Superoxide anion chemiluminescent assay (hypoxanthine/xanthine oxidase); type: biochemical; settings: mean of 6 independent assays
Excerpt: (§2) The superoxide anion has been measured by a chemiluminescent assay based on the hypoxanthine (HPX)/xanthine oxidase (XOD) reaction using the Lumimax Superoxide Anion Detection Kit (Stratagene, La Jolla, Calif., USA) and following the manufacturer's instructions. Hydroxyl radical scavenger activity has been measured by means of the Fenton reaction for the production of hydroxyl radicals and chemiluminescent dosage (using a Victor^3 chemiluminometer, Wallac, Finland) with luminol. Peroxynitrite ions have been determined by means of dosage with a spontaneous generator of peroxynitrites (3-morpholinosidnonimine hydrochloride; SIN-1) and a stable reagent for the nitroxyl ions (2-(4-carboxyphenyl)-4,4,5,5-tetramethylimidazoline-1-oxyl-3-oxide potassium salt PTIO spin trap) then dosed by means of electron spin resonance (ESR) using a. Nippon Denshi JES-FR30.
(§3) Extract 1 and Extract 2 listed in Table are derived from Syringa vulgaris cell cultures. […] The results are expressed as the concentration inhibiting 50% of activity (IC50). The values reported are the means of 6 independent assays.

[4] = Hydroxyl radical scavenger activity (Fenton reaction, luminol chemiluminescence); type: biochemical; settings: mean of 6 independent assays
Excerpt: as §2, with “Syringa vulgaris Extracts 1 and 2, prepared as described in examples 1 and 2, have been used to assess in vitro antioxidant action with specific oxygen radical generating systems such as the superoxide anion (O2^−), the hydroxyl radical (HO), the peroxynitrite radical (ONOO^−) and the inhibition of lipid peroxidation. The” for “The”, “JES-FR30. […].” for “JES-FR30.”
Extract 1 and Extract 2 listed in Table are derived from Syringa vulgaris cell cultures. In said extracts, verbascoside is present at 0.82% and 35% by weight respectively. […]

[5] = Peroxynitrite assay (SIN-1, PTIO spin trap, ESR); type: biochemical; settings: mean of 6 independent assays
Excerpt: as §2, §3

A549 cells = assay: Oxidative stress (ROS, DCF fluorescence) in A549 cell cultures; type: cell-based, human; settings: 1 mM, A549, galactose oxidative stress
Procedure: 10×10^5 A549 cells (ATCC-CCL195) have been seeded into wells with 3 ml of DMEM/medium (HAM'S F12K) with 10% FCS and incubated at 37° C. in a 5% CO2, water vapour saturated atmosphere. After 24 hours the culture medium is replaced by medium supplemented with 5.55 mM galactose, which is left in contact with the cells for 20 hours. The medium is once again replaced with medium containing galactose in the presence or absence of the test compound. After 5 hours, quantitative measurement of the ROSs is performed by washing the cells with phosphate buffer and then incubating them with 30 μM DCF-DA in buffer solution. At the end of a 15 minute incubation, excess DCF-DA is removed from the cells by washing, prior to measuring the fluorescence emitted.
Antioxidant activity measurements are performed using a (Hitachi F3010) spectrophotometer with excitation at 488 nm and measuring emission at 525 nm, and values are expressed in pmoles, by extrapolation from the calibration curve constructed using known quantities of DCF, in relation to total cellular protein. Values are thus expressed in % ages with respect to the ROS, content of the cells not subjected to oxidative stress, to which are assigned a value of 100.
Syringa vulgaris Extracts 1 and 2 and ascorbic acid have been dissolved in phosphate buffer.

Row | Test L-tyrosine-DOPA inhibitory activity (%) (tyrosinase [1]) | Test LDOPA-DOPAquinone inhibitory activity (%) (tyrosinase [2]) | Compound | further results
1 | 94.1 | 35 | O=c1cc(CO)occ1O [Kojic acid, reference compound] | 
2 |  |  | O=C1c2c(O)cccc2C([C@@H]2O[C@H](CO)[C@@H](O)[C@H](O)[C@H]2O)c2cc(CO)cc(O)c21 (some centres unmarked) [Aloin, reference compound] | Superoxide radical (IC50) [3]: 7.6 µg/mL; Hydroxyl radial (IC50) [4]: 2.9 µg/mL; Peroxynitrite radical (IC50) [5]: 12.3 µg/mL
3 |  |  | O=C1O[C@H]([C@@H](O)CO)C(O)=C1O [Ascorbic acid, reference compound] | ROS level (%) (A549 cells): 62.91 ± 3.82 %
4 | 56.9 | 0 | Oc1cccc(O)c1 [Resorcinol, reference compound] | 
